The values that follow come from PubChem BioAssay (NCI).

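48-hour exposure; five concentrations; linearly interpolated endpoints. Here, GI50 denotes the concentration required for 50% inhibition of growth. TGI is the concentration that stops growth completely.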

Test systems include HOP-92 NSCLC; T-47D breast; NCI-H522 lung; NCI-H23 lung; A549 NSCLC; SW-620 colon; RXF 393 renal; SR leukemia.
What all share (assay): NCI-60 cell line screen, 48 h

For `COc1ccc2nc(-c3ccccc3)cc(Nc3cccc(C(C)=O)c3)c2c1`, the GI50 in the test on HOP-92 NSCLC was 15.2 µM; with T-47D breast, 13.4 µM; in the test with NCI-H522 lung, 31.6 µM; in the test with NCI-H23 lung it was 14 µM; with A549 NSCLC, 15.3 µM; with SW-620 colon, 2.7 µM. In addition, the TGI with HOP-92 NSCLC is 38.4 µM; in the test with T-47D breast, greater than 100 µM; in the test with NCI-H522 lung it was greater than 100 µM; in the test on NCI-H23 lung, 33.1 µM; in the test on A549 NSCLC, 55.6 µM; in the test on SW-620 colon it was 15.1 µM.
`O=c1ccc(=O)n(-c2ccccc2)[nH]1`: the TGI with HOP-92 NSCLC, in the test with T-47D breast, in the test on NCI-H522 lung, in the test with NCI-H23 lung, in the test on A549 NSCLC and in the test with RXF 393 renal was greater than 100 µM in each case. The same molecule showed a TGI in the test with SW-620 colon greater than 100 µM.
Turning to `COC(=O)C1(C)CC2C(C)(CCC3(C)C4=CC=C5C(=CC(=O)C(O)=C5C)C4(C)CCC23C)CC1O` (stereo unspecified), the TGI with HOP-92 NSCLC was found to be 2.82 µM; in the test with NCI-H522 lung, 0.54 µM; in the test with A549 NSCLC it was 4.94 µM; with RXF 393 renal it was 1.37 µM; in the test with SR leukemia, 0.575 µM.
Consider `COc1cccc(/C=C/c2ccnc3ccccc23)c1OC`, for which the TGI with HOP-92 NSCLC, with T-47D breast, with NCI-H522 lung, in the test with NCI-H23 lung, in the test with A549 NSCLC and in the test with RXF 393 renal was greater than 10 µM in each case. For the same molecule, in the test on SW-620 colon, the TGI is greater than 10 µM.
With `O=C(CCl)Nc1cc(Cl)c(Cl)cc1Cl`, the TGI in the test on T-47D breast is 5.59 µM; in the test on NCI-H522 lung, 2.02 µM; with NCI-H23 lung it was 3.28 µM; with A549 NSCLC it was 4.56 µM; in the test on RXF 393 renal, 4.58 µM; in the test with SR leukemia it was greater than 10 µM. Also, in the test on SW-620 colon, the TGI is 5.72 µM.
In the case of `C=C1C(=O)O[C@H]2[C@H]1CC/C(Cn1cc(-c3cccc(Cl)c3)nn1)=C\CC[C@@]1(C)O[C@@H]21`, the GI50 in the test on HOP-92 NSCLC was 0.257 µM; in the test with NCI-H522 lung, 0.291 µM; in the test with NCI-H23 lung, 1.58 µM; in the test with A549 NSCLC, 1.79 µM; with RXF 393 renal, 0.558 µM; in the test with SR leukemia, 0.231 µM. The GI50 in the test on SW-620 colon is 0.33 µM. Besides, the TGI was determined as 0.842 µM in the test on HOP-92 NSCLC; 1.09 µM in the test on NCI-H522 lung; 3.27 µM with NCI-H23 lung; 3.57 µM in the test with A549 NSCLC; 1.85 µM in the test with RXF 393 renal; 0.886 µM with SR leukemia. Besides, the TGI in the test on SW-620 colon turned out to be 1.2 µM.
As for `O=S(=O)(c1ccccc1)N1CN2CN(C1)CN(S(=O)(=O)c1ccccc1)C2`, the TGI with HOP-92 NSCLC, with NCI-H23 lung, with A549 NSCLC, with RXF 393 renal, in the test with SR leukemia and in the test with SW-620 colon was greater than 100 µM each time.
`C[C@H](CS)C(=O)N1c2ccccc2C[C@H]1C(=O)O`: the TGI with T-47D breast, in the test on NCI-H522 lung, with NCI-H23 lung, in the test with A549 NSCLC, with SR leukemia and with SW-620 colon was greater than 100 µM each time.
For `CC[C@]1(O)CC2CN(CCc3c([nH]c4ccccc34)[C@@](C(=O)OC)(c3cc4c(cc3OC)N(C=O)[C@H]3[C@@](O)(C(=O)OC)[C@H](OC(C)=O)[C@]5(CC)C=CCN6CC[C@]43[C@@H]65)C2)C1` (stereo partly specified), the TGI in the test with HOP-92 NSCLC is greater than 50 µM; in the test on NCI-H522 lung, less than 0.005 µM; in the test on NCI-H23 lung, greater than 50 µM; in the test on A549 NSCLC it was greater than 50 µM; in the test with RXF 393 renal, greater than 50 µM; in the test on SR leukemia, greater than 50 µM. Also, in the test on SW-620 colon, the TGI was greater than 50 µM. Further, the GI50 in the test with NCI-H522 lung was less than 0.005 µM; in the test with NCI-H23 lung it was less than 0.005 µM; in the test with A549 NSCLC, 0.0172 µM; with RXF 393 renal, less than 0.005 µM; in the test on SR leukemia, less than 0.005 µM; with SW-620 colon it was less than 0.005 µM.
As for `Cc1ccc(/C=C/c2c(C(=O)/C=C/c3ccc(Cl)cc3)c(C)nc3ccccc23)cc1`, the GI50 is 1.62 µM with HOP-92 NSCLC; 1.86 µM in the test with NCI-H522 lung; 1.38 µM in the test with NCI-H23 lung; 2.45 µM in the test on A549 NSCLC; 1.79 µM with RXF 393 renal; 1.92 µM with SR leukemia. The GI50 in the test on SW-620 colon was 1.9 µM. Further, the TGI with HOP-92 NSCLC is 3.53 µM; with NCI-H522 lung, 5.94 µM; in the test on NCI-H23 lung, 3.22 µM; in the test on A549 NSCLC, 6.85 µM; with RXF 393 renal, 3.45 µM; with SR leukemia, greater than 100 µM. The TGI in the test with SW-620 colon is 5.11 µM.
In the case of `COc1ccc(Cl)cc1Nc1nc(C(F)(F)F)ccc1C(=O)N/N=C/c1cccnc1`, the GI50 in the test with HOP-92 NSCLC is 2.42 µM; in the test with T-47D breast it was 2.12 µM; in the test on NCI-H522 lung, 2.47 µM; in the test with NCI-H23 lung, 5.34 µM; in the test with A549 NSCLC it was 5.49 µM; in the test on SW-620 colon, 4.07 µM. In addition, the TGI is 28.3 µM in the test on HOP-92 NSCLC; greater than 100 µM in the test with T-47D breast; 74.7 µM in the test on NCI-H522 lung; greater than 100 µM with NCI-H23 lung; greater than 100 µM with A549 NSCLC; greater than 100 µM in the test with SW-620 colon.
Consider `O=CNc1ccc(S(=O)(=O)c2ccc(NC=O)cc2)cc1`, for which the TGI in the test on HOP-92 NSCLC, in the test on T-47D breast, in the test on NCI-H522 lung, in the test on NCI-H23 lung, in the test with A549 NSCLC and in the test with SR leukemia was greater than 100 µM throughout. The same molecule showed a TGI with SW-620 colon greater than 100 µM.
On to `O=C1c2ccccc2C(=O)c2c1ccc1c(=O)n(-c3ccccc3C(F)(F)F)nnc21`, for which the GI50 was 2.08 µM in the test with HOP-92 NSCLC; 1.86 µM in the test on T-47D breast; 1.81 µM with NCI-H522 lung; 1.34 µM in the test with NCI-H23 lung; 2.15 µM with RXF 393 renal; 3.43 µM in the test on SW-620 colon. In addition, the TGI in the test with HOP-92 NSCLC is 5.94 µM; in the test with T-47D breast, 6.98 µM; in the test on NCI-H522 lung it was 5.71 µM; with NCI-H23 lung, 3.51 µM; in the test on RXF 393 renal, 4.87 µM; in the test with SW-620 colon, greater than 100 µM.
On to `CCOC(=O)c1c(NC(=O)c2ccccc2)sc2c3c(ccc12)OCN(C)C3`, for which the GI50 in the test on HOP-92 NSCLC was 1.2 µM; in the test on T-47D breast, 1.76 µM; in the test with NCI-H522 lung, 1.66 µM; in the test with NCI-H23 lung, 1.78 µM; in the test on A549 NSCLC, 1.73 µM; in the test with RXF 393 renal it was 1.57 µM. In addition, the GI50 in the test with SW-620 colon is 1.63 µM. In addition, the TGI amounted to 2.68 µM in the test with HOP-92 NSCLC; 3.78 µM in the test on T-47D breast; 3.62 µM in the test with NCI-H522 lung; 3.78 µM in the test with NCI-H23 lung; 3.56 µM in the test with A549 NSCLC; 3.2 µM in the test on RXF 393 renal. In addition, in the test with SW-620 colon, the TGI was found to be 3.32 µM.
